From patent US9855265B2, “Methods for treating cancer with TrkA receptor tyrosine kinase antagonists” (VM Oncology LLC, priority 2014, dated 2018)

What was measured:
PKCtheta = PKCtheta (Homo sapiens, UniProt Q04759); assay: radiometric kinase assay, other kinases: PKCtheta; assay type: biochemical; settings: duplicate
Protocol: (§1) Compound inhibition in a radiometric based mixed micelle assay: In a final reaction volume of 25 μL, TrkA (h) ([…]) is incubated with the kinase reaction buffer (20 mM HEPES (pH 7.5), 10 mM MgCl2, 1 mM EGTA, 0.02% Brij 35, 0.02 mg/ml BSA, 0.1 mM Na3VO4, 2 mM DTT, 1% DMSO), 0.2 mg/ml substrate PolyEY(4:1) and […], and [^33P-ATP](specific activity approx. 500 cpm/pmol, concentration as required). The reaction is initiated by the addition of the MgATP mix. After incubation for at least 40 minutes at room temperature, the reaction is stopped by the addition of 5 μL of a 3% phosphoric acid solution. 10 μL of the reaction is then spotted onto a P30 filtermat and washed three times for 5 minutes in 75 mM phosphoric acid and once in methanol prior to drying and scintillation counting. TrkA: Recombinant Human Cytoplasmic Domain (amino acids 441-796), Histidine-tagged, expressed in insect cells. Activated in vitro via auto-phosphorylation. Mw=42.8 kDa. Substrates for kinases: poly(EY) for TRKA; poly(EY)(4:1) with 2 mM MnCl2, average Mw=16 kDa Standard conditions (unless otherwise specified): 30 nM TRKA, 0.2 mg/ml poly(EY)+2 mM MnCl2, and 10 μM ([γ-^33P]) ATP. Using the similar assay condition with other kinases of recombinant human cytoplasmic domain, the activities of other kinases could be also measured.

PKA = PKA (Homo sapiens, UniProt P17612); assay: radiometric kinase assay, other kinases: PKA; assay type: biochemical; settings: duplicate
Protocol: as §1

VEGFR2/KDR = biological target: T1, VEGFR2/KDR (Homo sapiens, UniProt P35968); assay: radiometric kinase assay, other kinases: VEGFR2/KDR; assay type: biochemical; settings: duplicate
T1 construct: other kinases of recombinant human cytoplasmic domain
Protocol: as §1

PKCiota = PKCiota (Homo sapiens, UniProt P41743); assay: radiometric kinase assay, other kinases: PKCiota; assay type: biochemical; settings: duplicate
Protocol: as §1

[1] = biological target: other more than 400 kinases; assay: radiometric kinase assay, kinase panel; assay type: biochemical, human; settings: duplicate
Protocol: as §1

TIE2/TEK = biological target: T2, TIE2/TEK (Homo sapiens, UniProt Q02763); assay: radiometric kinase assay, other kinases: TIE2/TEK; assay type: biochemical; settings: duplicate
T2 construct: other kinases of recombinant human cytoplasmic domain
Protocol: as §1

FES/FPS = FES/FPS (Homo sapiens, UniProt P07332); assay: radiometric kinase assay, other kinases: FES/FPS; assay type: biochemical; settings: duplicate
Protocol: as §1

PKCepsilon = PKCepsilon (Homo sapiens, UniProt Q02156); assay: radiometric kinase assay, other kinases: PKCepsilon; assay type: biochemical; settings: duplicate
Protocol: as §1

ALK5/TGFB-R1 = biological target: T3, ALK5/TGFB-R1 (Homo sapiens, UniProt P36897); assay: radiometric kinase assay, other kinases: ALK5/TGFB-R1; assay type: biochemical; settings: duplicate
T3 construct: other kinases of recombinant human cytoplasmic domain
Protocol: as §1

[2] = system: carrageenan-induced pain in rats; assay: Carrageenan Pain Model; assay type: in vivo, Sprague-Dawley rats; settings: carrageenan rat model, 150 mg/kg oral dose, compared to indomethacin
Protocol: Carrageenan Pain Model The carrageenan model is a fast, reliable model used to assess the ability of analgesics to block inflammatory pain. The analgesic effects of test article combinations on pain generation are assayed using the carrageenan-induced pain model in rats. Adult male Sprague-Dawley rats are administered study drugs orally (vehicle, compounds of present disclosure) once daily for 2 days (day −2 and day −1) and 30 minutes prior to the carrageenan injection on day 0 (time=0). For the carrageenan injection, animals are lightly anesthetized and 0.1 ml of 2% carrageenan is injected into the plantar surface of the right hind paw. The positive control indomethacin (30 mg/kg, p.o.) is administered orally immediately before the carrageenan injection. Paw volumes (right and left) are measured using a Plethysmometer before drug administration on day −2 and serve as a baseline measurement. The paw volumes are measured again two hours post carrageenan injection. The degree of mechanical allodynia is measured by a blinded observer using Von Frey filaments applied to the plantar surface of the hind paws in an increasing numerical order. Each filament increases the force applied on the paw. The filaments are applied until animal paw withdrawal is achieved. […] Results are expressed as mean change from baseline across five timepoints post carrageenan injection.

ABL1 = ABL1 (Homo sapiens, UniProt P00519); assay: radiometric kinase assay, other kinases: ABL1; assay type: biochemical; settings: duplicate
Protocol: as §1

FLT3 (CD) = biological target: T4, FLT3 (CD) (Homo sapiens, UniProt P36888); assay: radiometric kinase assay, other kinases: FLT3 (CD); assay type: biochemical; settings: duplicate
T4 construct: other kinases of recombinant human cytoplasmic domain
Protocol: as §1

PKG1b = PKG1b (Homo sapiens, UniProt Q13976); assay: radiometric kinase assay, other kinases: PKG1b; assay type: biochemical; settings: duplicate
Protocol: as §1

CDK2/cyclinE = CDK2/cyclinE (Homo sapiens, UniProt P24941); assay: radiometric kinase assay, other kinases: CDK2/cyclinE; assay type: biochemical; settings: duplicate
Protocol: as §1

BMX = BMX (Homo sapiens, UniProt P51813); assay: radiometric kinase assay, other kinases: BMX; assay type: biochemical; settings: duplicate
Protocol: as §1

TEC = TEC (Homo sapiens, UniProt P42680); assay: radiometric kinase assay, other kinases: TEC; assay type: biochemical; settings: duplicate
Protocol: as §1

MEK2 = MEK2 (Homo sapiens, UniProt P36507); assay: radiometric kinase assay, other kinases: MEK2; assay type: biochemical; settings: duplicate
Protocol: as §1

TrkC = TrkC (Homo sapiens, UniProt Q16288); assay: live whole cell based functional assay, NT3 stimulated TrkC activation; set-up: expressed in transfected cells; settings: triplicate
PKCbetaI = PKCbetaI (Homo sapiens, UniProt P05771); assay: radiometric kinase assay, other kinases: PKCbetaI; assay type: biochemical; settings: duplicate
Protocol: as §1

T4 sequence (P36888 564-993 limits assumed): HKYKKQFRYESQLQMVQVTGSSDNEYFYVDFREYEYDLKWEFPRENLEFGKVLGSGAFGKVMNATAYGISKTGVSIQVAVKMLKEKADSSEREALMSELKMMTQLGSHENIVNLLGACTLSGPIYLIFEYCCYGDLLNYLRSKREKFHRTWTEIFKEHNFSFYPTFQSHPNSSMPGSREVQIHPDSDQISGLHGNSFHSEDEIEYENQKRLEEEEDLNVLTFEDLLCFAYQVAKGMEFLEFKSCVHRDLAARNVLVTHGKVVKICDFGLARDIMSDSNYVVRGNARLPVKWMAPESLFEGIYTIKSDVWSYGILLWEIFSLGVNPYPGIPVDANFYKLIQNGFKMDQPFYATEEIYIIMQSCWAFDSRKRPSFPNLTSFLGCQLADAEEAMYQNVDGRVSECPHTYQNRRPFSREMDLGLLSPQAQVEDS
Chain of TEC (P42680 whole entry): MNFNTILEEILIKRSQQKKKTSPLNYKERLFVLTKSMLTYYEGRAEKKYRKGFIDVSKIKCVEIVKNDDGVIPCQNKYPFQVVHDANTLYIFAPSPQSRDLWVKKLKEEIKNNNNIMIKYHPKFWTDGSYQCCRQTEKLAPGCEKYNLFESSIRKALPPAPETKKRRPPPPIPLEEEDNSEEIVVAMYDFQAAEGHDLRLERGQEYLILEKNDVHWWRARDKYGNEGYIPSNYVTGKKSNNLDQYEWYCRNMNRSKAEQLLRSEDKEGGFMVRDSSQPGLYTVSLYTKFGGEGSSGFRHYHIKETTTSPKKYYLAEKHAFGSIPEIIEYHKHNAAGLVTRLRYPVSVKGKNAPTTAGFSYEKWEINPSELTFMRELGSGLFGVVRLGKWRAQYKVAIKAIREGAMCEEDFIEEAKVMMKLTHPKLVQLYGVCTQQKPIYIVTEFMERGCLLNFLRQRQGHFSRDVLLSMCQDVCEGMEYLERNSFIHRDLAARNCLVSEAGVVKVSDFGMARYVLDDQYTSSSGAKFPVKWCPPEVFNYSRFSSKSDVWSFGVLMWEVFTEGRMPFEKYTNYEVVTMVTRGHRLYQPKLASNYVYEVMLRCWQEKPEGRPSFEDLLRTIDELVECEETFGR
T2 sequence (Q02763 770-1124 limits assumed): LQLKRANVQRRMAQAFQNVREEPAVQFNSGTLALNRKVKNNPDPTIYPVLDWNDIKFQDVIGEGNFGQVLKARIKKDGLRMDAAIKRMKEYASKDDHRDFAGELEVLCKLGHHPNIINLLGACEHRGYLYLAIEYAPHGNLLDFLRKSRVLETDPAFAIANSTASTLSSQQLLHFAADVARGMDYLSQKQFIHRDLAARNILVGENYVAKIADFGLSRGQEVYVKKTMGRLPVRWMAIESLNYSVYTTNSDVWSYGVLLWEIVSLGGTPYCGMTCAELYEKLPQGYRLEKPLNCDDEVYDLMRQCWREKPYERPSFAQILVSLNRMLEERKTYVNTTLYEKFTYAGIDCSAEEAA
Chain of FES/FPS (P07332 whole entry): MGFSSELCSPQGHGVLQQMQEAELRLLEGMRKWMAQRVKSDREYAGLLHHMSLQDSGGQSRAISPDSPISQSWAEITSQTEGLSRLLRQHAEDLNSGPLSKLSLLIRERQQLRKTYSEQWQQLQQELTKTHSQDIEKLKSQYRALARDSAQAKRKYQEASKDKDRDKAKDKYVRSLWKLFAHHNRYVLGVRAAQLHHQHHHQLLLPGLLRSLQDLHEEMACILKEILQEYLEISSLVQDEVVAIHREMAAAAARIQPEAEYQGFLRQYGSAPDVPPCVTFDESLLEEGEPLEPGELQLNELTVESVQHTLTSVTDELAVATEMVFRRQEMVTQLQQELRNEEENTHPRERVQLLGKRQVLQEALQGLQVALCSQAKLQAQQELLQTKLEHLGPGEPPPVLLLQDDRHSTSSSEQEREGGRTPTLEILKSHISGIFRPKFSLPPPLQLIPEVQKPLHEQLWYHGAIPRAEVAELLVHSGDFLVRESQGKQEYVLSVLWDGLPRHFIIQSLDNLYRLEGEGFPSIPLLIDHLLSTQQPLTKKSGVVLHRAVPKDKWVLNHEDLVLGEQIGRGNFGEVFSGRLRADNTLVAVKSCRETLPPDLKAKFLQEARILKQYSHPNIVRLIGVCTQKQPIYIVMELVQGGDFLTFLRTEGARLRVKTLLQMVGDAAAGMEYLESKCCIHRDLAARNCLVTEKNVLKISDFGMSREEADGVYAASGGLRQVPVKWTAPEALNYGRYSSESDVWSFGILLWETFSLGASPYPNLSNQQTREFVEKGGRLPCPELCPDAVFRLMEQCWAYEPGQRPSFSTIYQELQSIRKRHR
Chain of PKCiota (P41743 whole entry): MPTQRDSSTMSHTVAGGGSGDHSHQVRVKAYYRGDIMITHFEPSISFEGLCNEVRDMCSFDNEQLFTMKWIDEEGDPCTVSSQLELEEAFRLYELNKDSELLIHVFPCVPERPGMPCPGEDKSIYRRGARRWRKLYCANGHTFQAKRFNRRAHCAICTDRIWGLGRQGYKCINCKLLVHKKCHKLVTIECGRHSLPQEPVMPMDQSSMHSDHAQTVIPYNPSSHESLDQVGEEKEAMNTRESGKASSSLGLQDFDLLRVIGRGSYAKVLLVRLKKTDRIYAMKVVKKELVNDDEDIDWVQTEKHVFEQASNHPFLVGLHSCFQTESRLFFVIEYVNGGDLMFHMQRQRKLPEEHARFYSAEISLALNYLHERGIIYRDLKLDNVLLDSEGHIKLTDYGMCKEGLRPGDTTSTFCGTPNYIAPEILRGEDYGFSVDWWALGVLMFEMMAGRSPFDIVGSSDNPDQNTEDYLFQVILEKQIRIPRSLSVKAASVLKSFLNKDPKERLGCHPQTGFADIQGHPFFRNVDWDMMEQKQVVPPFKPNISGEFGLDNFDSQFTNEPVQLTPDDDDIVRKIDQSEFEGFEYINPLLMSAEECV
Chain of BMX (P51813 whole entry): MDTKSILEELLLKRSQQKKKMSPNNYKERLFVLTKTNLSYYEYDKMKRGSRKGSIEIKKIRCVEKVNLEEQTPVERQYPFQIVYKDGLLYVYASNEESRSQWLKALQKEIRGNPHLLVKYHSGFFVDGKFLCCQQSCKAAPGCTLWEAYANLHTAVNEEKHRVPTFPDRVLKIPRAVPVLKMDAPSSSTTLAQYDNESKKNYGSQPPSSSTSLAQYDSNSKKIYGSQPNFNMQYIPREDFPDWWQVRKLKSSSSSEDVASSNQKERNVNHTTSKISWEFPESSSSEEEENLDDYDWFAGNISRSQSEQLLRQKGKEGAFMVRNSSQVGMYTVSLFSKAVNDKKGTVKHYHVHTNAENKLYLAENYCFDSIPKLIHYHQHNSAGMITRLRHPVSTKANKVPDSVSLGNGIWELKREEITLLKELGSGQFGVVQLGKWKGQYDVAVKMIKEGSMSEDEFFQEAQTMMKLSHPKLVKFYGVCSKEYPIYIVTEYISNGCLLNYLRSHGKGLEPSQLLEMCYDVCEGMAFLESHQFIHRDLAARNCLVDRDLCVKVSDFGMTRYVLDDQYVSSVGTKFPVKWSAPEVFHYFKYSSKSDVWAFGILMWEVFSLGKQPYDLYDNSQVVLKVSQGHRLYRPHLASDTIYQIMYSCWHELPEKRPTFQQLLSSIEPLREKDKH
Chain of PKCbetaI (P05771 whole entry): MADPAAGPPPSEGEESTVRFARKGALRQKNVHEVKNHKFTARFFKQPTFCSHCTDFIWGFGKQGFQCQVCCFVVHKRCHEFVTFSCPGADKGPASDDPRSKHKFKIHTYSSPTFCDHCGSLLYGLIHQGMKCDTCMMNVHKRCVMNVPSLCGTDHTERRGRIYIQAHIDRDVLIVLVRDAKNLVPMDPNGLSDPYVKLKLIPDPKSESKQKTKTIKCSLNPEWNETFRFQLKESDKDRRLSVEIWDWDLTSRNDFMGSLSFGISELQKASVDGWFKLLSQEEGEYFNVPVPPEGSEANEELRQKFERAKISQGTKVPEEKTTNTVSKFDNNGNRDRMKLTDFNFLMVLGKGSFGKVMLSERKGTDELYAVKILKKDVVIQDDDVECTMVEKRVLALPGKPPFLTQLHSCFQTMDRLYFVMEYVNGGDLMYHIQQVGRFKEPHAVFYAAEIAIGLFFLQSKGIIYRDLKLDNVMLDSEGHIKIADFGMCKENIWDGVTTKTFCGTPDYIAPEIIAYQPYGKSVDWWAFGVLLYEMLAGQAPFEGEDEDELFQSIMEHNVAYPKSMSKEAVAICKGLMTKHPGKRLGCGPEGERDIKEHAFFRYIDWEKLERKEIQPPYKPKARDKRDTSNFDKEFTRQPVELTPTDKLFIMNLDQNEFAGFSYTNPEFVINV
Chain of PKG1b (Q13976 1-686 isoform Q13976-2): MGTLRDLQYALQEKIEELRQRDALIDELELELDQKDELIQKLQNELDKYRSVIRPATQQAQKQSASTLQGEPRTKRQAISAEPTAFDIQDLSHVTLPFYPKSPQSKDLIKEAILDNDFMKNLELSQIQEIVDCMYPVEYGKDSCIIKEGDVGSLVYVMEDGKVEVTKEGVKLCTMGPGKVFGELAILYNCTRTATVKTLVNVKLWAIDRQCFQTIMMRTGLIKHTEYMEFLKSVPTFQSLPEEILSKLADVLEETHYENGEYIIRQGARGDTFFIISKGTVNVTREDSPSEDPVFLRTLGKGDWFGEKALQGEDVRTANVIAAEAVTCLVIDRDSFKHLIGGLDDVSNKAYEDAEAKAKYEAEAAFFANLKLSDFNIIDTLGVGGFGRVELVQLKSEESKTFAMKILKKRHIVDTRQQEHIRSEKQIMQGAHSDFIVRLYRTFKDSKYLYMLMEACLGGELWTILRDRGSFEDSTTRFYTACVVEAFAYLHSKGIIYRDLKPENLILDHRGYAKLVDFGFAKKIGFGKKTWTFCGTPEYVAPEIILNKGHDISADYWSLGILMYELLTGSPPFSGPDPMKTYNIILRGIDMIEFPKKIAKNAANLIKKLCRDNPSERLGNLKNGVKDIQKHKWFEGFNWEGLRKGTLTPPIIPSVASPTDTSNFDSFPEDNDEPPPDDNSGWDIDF

- IC50 (PKCtheta): > 10 µM
- IC50 (PKA): > 10 µM
- IC50 (VEGFR2/KDR): > 10 µM
- IC50 (PKCiota): > 10 µM
- IC50 [1]: > 10 µM
- IC50 (TIE2/TEK): > 10 µM
- IC50 (FES/FPS): > 10 µM
- IC50 (PKCepsilon): > 10 µM
- IC50 (ALK5/TGFB-R1): > 10 µM
- IC50 (ABL1): > 10 µM
- IC50 (FLT3 (CD)): > 10 µM
- IC50 (PKG1b): > 10 µM
- IC50 (CDK2/cyclinE): > 10 µM
- IC50 (BMX): > 10 µM
- IC50 (TEC): > 10 µM
- IC50 (MEK2): > 10 µM
- IC50 (TrkC): > 10 µM
- IC50 (PKCbetaI): > 10 µM
SMILES: Nc1c(N2CCN(C3CCCCC3)CC2)cc(Nc2ccc(C(=O)O)cc2)c2c1C(=O)c1ccccc1C2=O [Compound 12, 4-{[4-amino-3-(4-cyclohexylpiperazin-1-yl)-9,10-dioxo-9,10-dihydroanthracen-1-yl]amino}benzoic acid]
- relative analgesic effect [2]: about 85%
